Reference: ChEMBL document CHEMBL1201862, “PubChem BioAssay data set” (2004)
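Step 1: Grow cells in 96-well plates. Step 2: Expose to compound for 48 hours at 5 concentrations. Step 3: Interpolate endpoints linearly; if unreached, use highest concentration. GI50: concentration for 50% inhibition of growth.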 Calls of active or inactive are those of the source. No stated cut-off is given here; in the data, active = GI50 up to about 1.1 µM and inactive = higher.

Experiments:
Assay in all cases: NCI tumour cell line growth inhibition, 48 h
786-0 = test system: 786-0
ACHN = test system: ACHN
K562 = test system: K562
KM12 = test system: KM12
M14 = test system: M14
MOLT-4 = test system: MOLT-4
NCI-H460 = test system: NCI-H460
RXF 393 = test system: RXF 393
SF-268 = test system: SF-268
SK-MEL-2 = test system: SK-MEL-2
SK-MEL-5 = test system: SK-MEL-5
SW-620 = test system: SW-620
TK-10 = test system: TK-10
U-251 = test system: U-251
UACC-62 = test system: UACC-62
A498 = test system: A498

Row | SMILES | GI50 (786-0) | GI50 (ACHN) | GI50 (K562) | GI50 (KM12) | GI50 (M14) | GI50 (MOLT-4) | GI50 (NCI-H460) | GI50 (RXF 393) | GI50 (SF-268) | GI50 (SK-MEL-2) | GI50 (SK-MEL-5) | GI50 (SW-620) | GI50 (TK-10) | GI50 (U-251) | GI50 (UACC-62) | GI50 (A498)
1 | COC(=O)c1c(C(=O)OC)c2cc(C(=O)c3ccccc3)ccn2c1Cl | 44.6 µM (inactive) | 43.8 µM (inactive) | 29 µM (inactive) | 24 µM (inactive) | 34 µM (inactive) | 17.7 µM (inactive) | 50 µM (inactive) | 23.7 µM (inactive) | 43.2 µM (inactive) | 48.4 µM (inactive) | 16.2 µM (inactive) | 71 µM (inactive) | 67.1 µM (inactive) | 44.2 µM (inactive) | 24.9 µM (inactive) | 
2 | O=C1C=C[C@@]23CC1C(O)C[C@H]2C=Cc1ccccc13 (stereo partly specified) | > 100 µM (inactive) | > 100 µM (inactive) | 50.2 µM (inactive) | > 100 µM (inactive) | > 100 µM (inactive) | > 100 µM (inactive) | > 100 µM (inactive) |  | > 100 µM (inactive) | > 100 µM (inactive) | > 100 µM (inactive) | > 100 µM (inactive) |  |  | 34.8 µM (inactive) | > 100 µM (inactive)
3 | O=[N+]([O-])c1cccc(C2=NOC(C3CCCCC3)C2)c1 (stereo unspecified) | > 100 µM (inactive) | > 100 µM (inactive) | > 100 µM (inactive) | > 100 µM (inactive) | > 100 µM (inactive) | > 100 µM (inactive) | > 100 µM (inactive) |  | > 100 µM (inactive) | > 100 µM (inactive) | > 100 µM (inactive) | > 100 µM (inactive) | > 100 µM (inactive) | > 100 µM (inactive) | > 100 µM (inactive) | > 100 µM (inactive)
4 | CC1=CCC(O)C=CC(C)C(O)C(C)C=C(C)C(=O)c2c(O)c(C)cc3c2C(=O)C(N)=C(NC(=O)/C=C\C=C/C=CC(C)C(O)CC1=O)C3=O (stereo unspecified) | > 100 µM (inactive) | > 100 µM (inactive) | > 100 µM (inactive) | > 100 µM (inactive) | > 100 µM (inactive) | 63.7 µM (inactive) |  |  | > 100 µM (inactive) | > 100 µM (inactive) | > 100 µM (inactive) | > 100 µM (inactive) | > 100 µM (inactive) | > 100 µM (inactive) | > 100 µM (inactive) | > 100 µM (inactive)
5 | COc1cc([C@H]2c3cc4c(cc3[C@H](NCc3ccc(F)cc3)C3COC(=O)[C@H]32)OCO4)cc(OC)c1O (stereo partly specified) | 1.84 µM (inactive) | 1.13 µM (inactive) | 4.36 µM (inactive) | 3.33 µM (inactive) | 3.19 µM (inactive) | 0.344 µM (active) | 0.352 µM (active) | 8.04 µM (inactive) | 6.18 µM (inactive) | 15.6 µM (inactive) |  | 1.87 µM (inactive) | 15.4 µM (inactive) | 1.09 µM (active) | 1.56 µM (inactive) | 2.19 µM (inactive)
6 | O=C1c2ccccc2C(=O)C1(Cl)C1(S(=O)(=O)O)c2ccccc2-c2ccccc21 | > 100 µM (inactive) | > 100 µM (inactive) | > 100 µM (inactive) | > 100 µM (inactive) | > 100 µM (inactive) | > 100 µM (inactive) | > 100 µM (inactive) | > 100 µM (inactive) | > 100 µM (inactive) |  | > 100 µM (inactive) | > 100 µM (inactive) | > 100 µM (inactive) | > 100 µM (inactive) | > 100 µM (inactive) | > 100 µM (inactive)
7 | CC(=O)c1ccc(NC(=O)C(=O)C(C(=O)c2ccc(Cl)c(Cl)c2)C2OC(=O)c3ccccc32)cc1 (stereo unspecified) | 16.1 µM (inactive) | 20.5 µM (inactive) | 23.3 µM (inactive) | 20.1 µM (inactive) | 17.7 µM (inactive) | > 100 µM (inactive) | 13.2 µM (inactive) | 4.54 µM (inactive) | 16.3 µM (inactive) |  |  | 21.2 µM (inactive) | 31.4 µM (inactive) | 10.1 µM (inactive) | 19.4 µM (inactive) | 16.6 µM (inactive)
8 | O=C(c1ccccc1)N1CCN2CCN=C(c3ccccc3)C21c1ccccc1 (stereo unspecified) | > 100 µM (inactive) | 63.1 µM (inactive) | 29.1 µM (inactive) | > 100 µM (inactive) | 61.2 µM (inactive) | 20.2 µM (inactive) | 94.8 µM (inactive) | 45.5 µM (inactive) |  | > 100 µM (inactive) | > 100 µM (inactive) | > 100 µM (inactive) | > 100 µM (inactive) | > 100 µM (inactive) | 18.1 µM (inactive) | > 100 µM (inactive)
9 | COc1c(C)cc(O)cc1C=O | > 100 µM (inactive) | > 100 µM (inactive) | > 100 µM (inactive) | 93.3 µM (inactive) | > 100 µM (inactive) | > 100 µM (inactive) | > 100 µM (inactive) | > 100 µM (inactive) | > 100 µM (inactive) | > 100 µM (inactive) | > 100 µM (inactive) | > 100 µM (inactive) | > 100 µM (inactive) | > 100 µM (inactive) | > 100 µM (inactive) | 
